This note sets out measurements from ChEMBL document CHEMBL5537136 (J Med Chem, 2024).

Molecules are shown by their SMILES. Active and inactive are the calls of the source. No cut-off for these calls is given here.

Data set [1] concerns CT26. Nature of the data set: Antitumor activity against mouse CT26 cells implanted in immunodeficient Balb/c mouse assessed as inhibition of tumor growth at 25 mg/kg, ip qod measured after 10 days relative to control. The format is functional. Conditions: CT26, 240 h, time 10 day, read-out: TGI.
Data set [2] deals with T1, Protein mono-ADP-ribosyltransferase TIPARP (Homo sapiens) (UniProt Q7Z3E1).
T1 sequence (whole entry): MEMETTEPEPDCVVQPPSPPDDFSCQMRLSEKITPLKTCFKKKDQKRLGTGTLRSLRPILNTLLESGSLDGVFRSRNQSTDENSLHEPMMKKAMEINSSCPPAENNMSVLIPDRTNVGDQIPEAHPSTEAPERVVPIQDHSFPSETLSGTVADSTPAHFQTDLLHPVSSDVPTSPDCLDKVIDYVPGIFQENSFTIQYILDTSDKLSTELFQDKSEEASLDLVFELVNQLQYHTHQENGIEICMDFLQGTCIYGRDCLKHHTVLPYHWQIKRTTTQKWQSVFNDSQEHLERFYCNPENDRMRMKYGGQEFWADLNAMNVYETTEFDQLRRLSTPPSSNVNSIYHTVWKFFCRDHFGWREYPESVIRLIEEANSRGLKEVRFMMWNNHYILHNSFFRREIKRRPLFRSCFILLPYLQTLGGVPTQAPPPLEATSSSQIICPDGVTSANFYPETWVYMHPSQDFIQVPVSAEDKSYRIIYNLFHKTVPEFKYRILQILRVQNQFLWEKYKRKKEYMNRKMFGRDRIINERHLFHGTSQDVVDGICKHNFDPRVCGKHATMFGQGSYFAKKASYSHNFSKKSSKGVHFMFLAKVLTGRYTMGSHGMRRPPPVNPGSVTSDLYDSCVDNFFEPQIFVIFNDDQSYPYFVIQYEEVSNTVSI
Nature of the data set: Inhibition of PARP7 (unknown origin) at 100 nM measured after 1 hr incubation by microplate reader assay relative to control.

For data set [3], the target named is T2, Protein mono-ADP-ribosyltransferase TIPARP (Homo sapiens, UniProt Q7Z3E1).
T2 sequence (Q7Z3E1 whole entry): T1 sequence (whole entry)
Nature of the data set: Inhibition of PARP7 (unknown origin) measured after 1 hr incubation by microplate reader assay.

In data set [4] the test system is CT26. Nature of the data set: Antitumor activity in immunocompetent mouse CT26 cell bearing Balb/c mouse model assessed as induction of IFN-beta mRNA expression in tumor tissue at 100 mg/kg, IG treated twice a day measured after 14 days by quantitative real-time PCR analysis. Type of data set: functional, organism-based. Conditions: time 14.0 day.
Data set [5] in a line: Permeability across apical to basolateral side in human Caco-2 cells. Type of data set: ADME, cell-based.
Another data set deals with CYP3A4/5 (Homo sapiens, UniProt P08684+P20815). Kind of data set: Inhibition of CYP3A4/5 (unknown origin). The format is ADME, protein assay.
Data set [6] in a line: Oral bioavailability in ICR mouse. The format is ADME, organism-based. Conditions: in vivo.
Data set [7] is described as follows: Clearance in ICR mouse. The format is ADME. As to conditions: in vivo.
A short description of data set [8]: Antiproliferative activity against mouse AML12 cells measured after 6 days incubation by MTT assay. Type of data set: toxicity, cell-based.
A further data set deals with Cytochrome P450 2C9 (Homo sapiens, UniProt P11712). Nature of the data set: Inhibition of CYP2C9 (unknown origin). The format is ADME.
Sequence of Cytochrome P450 2C9 (P11712 whole entry): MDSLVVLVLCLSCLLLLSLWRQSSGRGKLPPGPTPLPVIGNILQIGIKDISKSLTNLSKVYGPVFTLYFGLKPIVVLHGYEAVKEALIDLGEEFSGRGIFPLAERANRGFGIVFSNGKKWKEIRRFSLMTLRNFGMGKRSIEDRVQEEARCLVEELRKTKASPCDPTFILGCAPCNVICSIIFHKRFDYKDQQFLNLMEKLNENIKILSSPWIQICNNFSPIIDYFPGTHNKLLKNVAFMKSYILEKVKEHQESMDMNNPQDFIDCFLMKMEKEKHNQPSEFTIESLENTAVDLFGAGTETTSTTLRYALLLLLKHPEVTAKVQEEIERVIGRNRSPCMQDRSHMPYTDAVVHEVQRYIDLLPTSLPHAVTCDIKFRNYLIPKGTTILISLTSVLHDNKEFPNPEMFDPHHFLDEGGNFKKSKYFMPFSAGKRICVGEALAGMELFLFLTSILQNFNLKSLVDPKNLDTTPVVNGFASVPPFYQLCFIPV
Data set [9] concerns CT26. Kind of data set: Antitumor activity in immunocompetent mouse CT26 cell bearing mouse model assessed as tumor growth inhibition at 100 mg/kg, IG treated twice a day measured after 14 days relative to control. Conditions: CT26, po, 336 h, time 14 day, read-out: TGI. The format is functional.
The nature of data set [10]: Permeability across basolateral to apical side in human Caco-2 cells. The format is ADME, cell-based.
A further data set has as its target Cytochrome P450 2D6 (Homo sapiens, UniProt P10635). Nature of the data set: Inhibition of CYP2D6 (unknown origin). The format is ADME.
Data set [11] has as its target Poly [ADP-ribose] polymerase 1 (Homo sapiens, UniProt P09874). Kind of data set: Inhibition of PARP1 (unknown origin) measured after 1 hr incubation by microplate reader assay.

Sequence of Poly [ADP-ribose] polymerase 1 (P09874 whole entry): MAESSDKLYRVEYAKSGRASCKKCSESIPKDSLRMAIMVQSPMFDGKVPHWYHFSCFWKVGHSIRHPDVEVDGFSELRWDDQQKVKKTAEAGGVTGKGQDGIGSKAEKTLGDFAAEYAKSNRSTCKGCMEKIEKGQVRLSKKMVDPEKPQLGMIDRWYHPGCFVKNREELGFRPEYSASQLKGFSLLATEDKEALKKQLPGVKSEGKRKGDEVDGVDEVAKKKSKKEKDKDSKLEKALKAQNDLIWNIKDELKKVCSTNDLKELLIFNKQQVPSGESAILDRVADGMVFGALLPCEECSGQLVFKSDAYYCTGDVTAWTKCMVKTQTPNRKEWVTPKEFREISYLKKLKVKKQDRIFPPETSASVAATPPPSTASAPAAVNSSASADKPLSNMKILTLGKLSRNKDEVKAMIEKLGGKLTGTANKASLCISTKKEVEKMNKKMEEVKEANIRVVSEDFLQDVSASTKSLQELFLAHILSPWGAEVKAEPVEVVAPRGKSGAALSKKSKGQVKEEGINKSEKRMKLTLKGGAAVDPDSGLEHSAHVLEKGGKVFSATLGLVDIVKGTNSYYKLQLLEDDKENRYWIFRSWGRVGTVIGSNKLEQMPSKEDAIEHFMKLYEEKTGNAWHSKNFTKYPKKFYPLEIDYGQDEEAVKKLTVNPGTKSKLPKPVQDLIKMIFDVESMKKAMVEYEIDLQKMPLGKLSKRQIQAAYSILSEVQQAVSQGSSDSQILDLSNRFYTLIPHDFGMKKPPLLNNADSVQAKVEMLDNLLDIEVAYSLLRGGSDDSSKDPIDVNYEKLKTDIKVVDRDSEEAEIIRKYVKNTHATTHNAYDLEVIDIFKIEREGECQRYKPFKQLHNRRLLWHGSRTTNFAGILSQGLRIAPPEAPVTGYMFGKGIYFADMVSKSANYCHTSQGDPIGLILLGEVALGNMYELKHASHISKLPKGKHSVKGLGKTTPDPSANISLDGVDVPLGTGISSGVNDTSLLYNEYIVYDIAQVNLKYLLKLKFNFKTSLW
Sequence of Cytochrome P450 2D6 (P10635 whole entry): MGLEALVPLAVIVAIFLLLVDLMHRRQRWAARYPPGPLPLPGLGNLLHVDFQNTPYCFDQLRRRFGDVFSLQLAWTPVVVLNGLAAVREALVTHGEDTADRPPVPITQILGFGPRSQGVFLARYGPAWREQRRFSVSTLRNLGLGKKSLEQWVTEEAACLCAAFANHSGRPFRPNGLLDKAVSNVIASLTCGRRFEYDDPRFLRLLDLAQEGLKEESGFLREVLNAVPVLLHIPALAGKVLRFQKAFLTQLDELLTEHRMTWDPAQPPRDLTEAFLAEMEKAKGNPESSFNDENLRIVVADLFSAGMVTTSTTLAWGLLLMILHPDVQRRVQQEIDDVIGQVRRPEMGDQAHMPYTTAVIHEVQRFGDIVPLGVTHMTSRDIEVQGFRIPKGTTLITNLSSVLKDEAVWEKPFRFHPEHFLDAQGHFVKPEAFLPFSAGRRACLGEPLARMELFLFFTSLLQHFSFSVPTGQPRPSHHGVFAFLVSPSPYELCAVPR

As for `O=c1[nH]cc(F)c(=O)[nH]1` [FLUOROURACIL], in the data set with CT26 [1], the inhibition in vivo at 25 mg/kg worked out at 65%.
In data set [2], `NC(=O)c1cccc2cn(CC(=O)N3CCN(c4ccc5c(c4)OC(F)(F)O5)CC3)nc12` yielded an inhibition of 17.5%.
Compound `NC(=O)c1cccc2cn(CCC(=O)N3CCN(c4ncc(C(F)(F)F)cn4)CC3)nc12` gave an inhibition in data set [2] of 33.9%.
`CC(C(=O)N1CCN(c2ccc3c(c2)OC(F)(F)O3)CC1)n1cc2cccc(C(N)=O)c2n1` (stereo not drawn): the inhibition in data set [2] was determined as 13%.
Still for that read-out and setting: as for `CC(C(=O)N1CCN(c2ncc(C#N)cn2)CC1)n1cc2cccc(C(N)=O)c2n1` (stereo not drawn), the figure is 71%.
In the case of `CC(C(=O)N1CCN(c2ccc(C(F)(F)F)cn2)CC1)n1cc2cccc(C(N)=O)c2n1` (stereo not drawn), the IC50 in data set [3] is 0.02 µM. Also, the inhibition in data set [2] worked out at 91.2%.
For the compound `C[C@@H](COCCC(=O)N1CCN(c2ncc(C(F)(F)F)cn2)CC1)Nc1cn[nH]c(=O)c1C(F)(F)F` [ATAMPARIB], in the data set on CT26 [4], the outcome was inactive. Moreover, in [5], the Papp A→B was 4.1 ×10⁻⁶ cm/s. Also, the concentration for half-maximal inhibition (IC50) against CYP3A4/5, at Cytochrome P450 2C9 and against Cytochrome P450 2D6 was over 30 µM in each case. The same compound returned a bioavailability in [6] of 25.7%. Also, the clearance in [7] was 67 mL/min/kg. Further, the IC50 at 6 days in [8] was over 50 µM. The inhibition in vivo at 100 mg/kg in the data set with CT26 [9] was determined as 4%. The basolateral-to-apical permeability (Papp B→A) in data set [10] is 24 ×10⁻⁶ cm/s.
In [2], `CC(C(=O)N1CCN(c2ncccn2)CC1)n1cc2cccc(C(N)=O)c2n1` (stereo not drawn) showed an inhibition of 19.7%.
Take `CC(C(=O)N1CCN(c2ncc(Br)cn2)CC1)n1cc2cccc(C(N)=O)c2n1` (stereo not drawn): in data set [3], the IC50 is 0.0223 µM. Besides, the inhibition in data set [2] amounted to 85.6%.
For the compound `COc1cnc(N2CCN(C(=O)C(C)n3cc4cccc(C(N)=O)c4n3)CC2)nc1` (stereo not drawn), the inhibition in data set [2] was determined as 65.5%.
Same read-out and setting: as for `CC(C(=O)N1CCN(c2ncc(S(C)(=O)=O)cn2)CC1)n1cc2cccc(C(N)=O)c2n1` (stereo not drawn), the figure is 25.6%; as for `CCC(C(=O)N1CCN(c2ncc(C(F)(F)F)cn2)CC1)n1cc2cccc(C(N)=O)c2n1` (stereo not drawn), 63%.
In the case of `Cc1cnc(N2CCN(C(=O)C(C)n3cc4cccc(C(N)=O)c4n3)CC2)nc1` (stereo not drawn), the IC50 in data set [3] was determined as 0.062 µM. The inhibition in data set [2] was 79.5%.
`NC(=O)c1cccc2cn(CC(=O)N3CCN(c4ccc(C(F)(F)F)cn4)CC3)nc12`: the IC50 in data set [11] is over 1.3 µM. The compound also showed an inhibition in data set [2] of 68.7%.
`NC(=O)c1cccc2cn(C(F)C(=O)N3CCN(c4ncc(C(F)(F)F)cn4)CC3)nc12` (stereo not drawn): in [3], half-maximal inhibition (IC50) required 0.122 µM. The inhibition in data set [2] was determined as 63%.
`NC(=O)c1cccc2cn(CC(=O)N3CCN(c4ncc(C(F)(F)F)cn4)CC3)nc12`: the IC50 in data set [3] was 0.046 µM; in [11], over 1.3 µM. In [2], this compound yielded an inhibition of 89%.
`CC(C(=O)N1CCN(c2ncc(F)cn2)CC1)n1cc2cccc(C(N)=O)c2n1` (stereo not drawn) registered an inhibition in data set [2] of 64.5%.
